Laboratory results: patent US20090220462A1, “STEM CELLS” (Duke University, priority 2005, published 2009)
Several values for one entry are separate records, joined by “and”; a condition that tells them apart may be missing. Identical values can stand only once.

What was measured:
CB CD34+CD38−lin− cells = assay: 7 day culture of CB CD34+CD38−lin− cells with TSF with and without ATRA (immunophenotype, CFC, morphology); type: cell-based, human
Description: (§1) Primary human BM and CB CD34^+CD38^−lin^− cells were placed in culture with 20 ng/mL thrombopoietin, 100 ng/mL SCF, and flt-3 ligand (TSF), a cytokine combination previously found to induce human stem and progenitor cell proliferation and differentiation in vitro (Chute et al, Blood 105:576-583 (2005), Chute et al, Stem ells 22:202-215 (2004)). In order to assess whether inhibition of ALDH activity could block the differentiation of human HSCs induced to proliferate by TSF, 1-2×10^4 BM or CB CD34^+CD38^−lin^− cells were cultured×7 days with IMDM, 10% FBS and 1% pcn/strp supplemented with TSF with and without 100 μM DEAB. At day 7, the progeny of all cultures were collected, washed×2 and cell counts were performed. A minimum of n=5 experiments was performed per culture condition to allow statistical comparisons to be performed. Immunophenotypic analysis was performed on progeny cells using anti-human CD34 and CD38 mAbs (Becton Dickinson) and isotype control IgG mAbs and compared with day 0 (input) staining. Fourteen day methylcellulose CFC assays (colony forming unit-granulocyte monocyte, CFU-GM, burst forming unit-erythroid, BFU-E, and colony forming unit-mix, CFU-Mix) were performed as we have previously described (Chute et al, Blood 100:4433-4439 (2002), Chute et al, Blood 105:576-583 (2005), Chute et al, Stem ells 22:202-215 (2004)) to compare the number of lineage committed CFCs within day 0 CD34^+CD38^−lin^− cells and their progeny. Morphologic analysis of day 0 CD34^+CD38^−lin^− cells and their progeny following 7 day culture was performed using Wrights-Geimsa staining and microscopic analysis under oil immersion (100×).
In order to assess the hematopoietic effects of retinoid agonists on purified human HSCs, BM and CB CD34^+CD38^−lin^− cells were placed in culture with TSF with and without 1 μM all-trans retinoic acid (ATRA), an agonist of RAR. Total cell expansion, immunophenotype, CFC content and morphologic analysis was performed on ATRA-treated progeny and compared with both day 0 CD34^+CD38^−lin^− populations and the progeny of TSF alone to assess the impact of retinoid agonism on the differentiation of human HSCs.

ALDH = ALDH activity by ALDEFLUOR staining of cultured CD34+CD38− cells; type: cell-based, human; conditions: 100 μM DEAB+TSF, 7 days, compared to day 0 or TSF alone, P=0.001
Description: (§2) Primary human BM and CB CD34^+CD38^−lin^− cells were placed in culture with 20 ng/mL thrombopoietin, 100 ng/mL SCF, and flt-3 ligand (TSF), a cytokine combination previously found to induce human stem and progenitor cell proliferation and differentiation in vitro (Chute et al, Blood 105:576-583 (2005), Chute et al, Stem ells 22:202-215 (2004)). In order to assess whether inhibition of ALDH activity could block the differentiation of human HSCs induced to proliferate by TSF, 1-2×10^4 BM or CB CD34^+CD38^−lin^− cells were cultured×7 days with IMDM, 10% FBS and 1% pcn/strp supplemented with TSF with and without 100 μM DEAB. At day 7, the progeny of all cultures were collected, washed×2 and cell counts were performed. A minimum of n=5 experiments was performed per culture condition to allow statistical comparisons to be performed. Immunophenotypic analysis was performed on progeny cells using anti-human CD34 and CD38 mAbs (Becton Dickinson) and isotype control IgG mAbs and compared with day 0 (input) staining. […]

[1] = system: BM and CB CD34+CD38−lin− cells; assay: 7 day culture of BM and CB CD34+CD38−lin− cells with TSF with and without DEAB (cell counts, immunophenotype, morphology); type: cell-based, human
Description: as §1

BM CD34+CD38−lin− cells = assay: Fourteen day methylcellulose CFC assay of culture progeny; type: cell-based, human; conditions: DEAB+TSF 7 days (TSF alone 5-fold increase vs input)
Description: as §2

[2] = system: CB CD34+CD38−lin− cells (SRCs); assay: Long-term repopulating assay in NOD/SCID mice, CB cells (limiting dilution, SRC frequency); type: in vivo, human
Description: (§3) NOD/SCID mice (Schulz et al, J. Immunol. 154:180-191 (1995)) were transplanted with either day 0 FACS-sorted BM or CB CD34^+CD38^−lin− HSC-enriched cells or the progeny of CD34^+CD38^−lin− cells cultured with TSF alone or TSF supplemented with 100 μM DEAB. Cells were transplanted via tail vein injection after irradiating NOD/SCID mice with 300 cGy using an X-ray irradiator as previously described (Chute et al, Blood 100:4433-4439 (2002), Chute et al, Blood 105:576-583 (2005)). Day 0 CD34^+CD38^−lin− HSCs and their progeny were co-transplanted with 2×10^4 […] to facilitate engraftment as previously described (Bonnet et al, Bone Marrow Transpl. 23:203-209 (1999), Bhatia et al, Proc. Natl. Acad. Sci. USA 94:5320-5325 (1997)).
(§4) All mice in each group were sacrificed at week 8 and marrow samples were obtained by flushing their femurs with IMDM at 4° C. Red cells were lysed using red cell lysis buffer (Sigma-Aldrich) and flow cytometric analysis of human hematopoietic engraftment was performed as previously described using commercially available mAbs against human leukocyte differentiation antigens to identify engrafted human leukocytes and discriminate their hematopoietic lineages (Chute et al, Blood 100:4433-4439 (2002), Chute et al, Blood 105:576-583 (2005), Trischmann et al, J. Hematother. 2:305-313 (1993)).
(§5) Comparisons of data from in vitro experiments were made using the Student's t test. For purposes of the limiting dilution analysis, a transplanted mouse was scored as positively engrafted if ≧0.1% of the marrow cells expressed human-CD45 via high resolution FACS analysis. This criteria is consistent with previously published criteria for human cell repopulation in NOD/SCID mice (Chute et al, Blood 100:4433-4439 (2002), Dorrell et al, Blood 95:102-110 (2000)). SRC frequency in each cell source was calculated using the maximum likelihood estimator as described previously by Taswell (J. Immunol. 126:1614-1619 (1981), Wang et al, Blood 89:3919-3924 (1997), Ueda et al, J. Clin. Invest. 105:1013-1021 (2000)). Confidence intervals for the frequencies were calculated using the profile likelihood method, and the likelihood ratio test was used to confirm the fit of the model.

[3] = system: BM CD34+CD38−lin− cells (SRCs); assay: Long-term repopulating assay in NOD/SCID mice, BM cells (SRC frequency); type: in vivo, human
Description: as §3, §4, §5

HOXB4 = assay: Quantitative real-time PCR of HOXB4 in cultured CB CD34+CD38−lin− cells; type: cell-based, human; conditions: DEAB added to TSF (TSF alone 5-fold decrease vs day 0)
Description: (§6) Extraction of total RNA from Day 0 and Day 7 CB CD34^+ populations was done using a RNeasy Mini spin column (Qiagen, Valencia, Calif.) according to the manufacturer's recommended protocol. […] Briefly, total RNA was isolated from CD34^+CD38^−lin^− cells according to the manufacturer's instructions for the RNaqueous®-Micro (Ambion) and reversed-transcribed to cDNA using iScript™ cDNA synthesis Kit (Biorad, Hercules, Calif.). cDNA concentrations were measured with a fluorometer (Turner Designs, Sunnyvale, Calif.) using RiboGreen reagent (Invitrogen). PCR amplification reactions were performed in 13 μl and contained equal amounts of cDNAs, 6.5 μl of iQ SYBR green supermix (Bio-Rad), 0.2 μM of each forward and reverse gene-specific primers for genes of interest and the normalization gene 36B4. PCR was performed on an iCycler (Bio-Rad) according to the following cycling conditions: an initial cycle of 15 min at 95° C.; 45 cycles of 45 sec at 95° C., 15 sec at 55° C., and 15 sec at 72° C.; followed by a melt-curve analysis cycle with steps of 10 sec each at 0.5° C. increments from 60 to 95° C. Amplification rates were visualized and analyzed on ICYCLER IQ optical system software version 3.0 (Bio-Rad). Gene-specific primers were purchased from Integrated DNA Technologies (Coralville, Iowa).

Notch = assay: Quantitative real-time PCR of Notch in cultured CB CD34+CD38−lin− cells; type: cell-based, human; conditions: DEAB+TSF
Description: as §6

[4] = progeny of DEAB+TSF cultures, cell dose 0.5-1×10^3, 8 weeks

With `CC1=C(/C=C/C(C)=C/C=C/C(C)=C/C(=O)O)C(C)(C)CCC1` [ATRA, all-trans retinoic acid] the “HSC differentiation in presence of DEAB” value (CB CD34+CD38−lin− cells; 1 μM ATRA+100 μM DEAB+TSF) was “HSC differentiation occurred”, the “number of CFCs compared to TSF alone” value (CB CD34+CD38−lin− cells; ATRA+TSF treated cultures) was “decreased” and the “differentiation and maturation of human HSCs” value (CB CD34+CD38−lin− cells; ATRA, by day 7) was “induced pronounced differentiation and myeloid maturation”. The “CD34+CD38− cells remaining in culture” value (CB CD34+CD38−lin− cells; TSF+1 μM ATRA, day 7) was “no CD34^+CD38^− cells remained” and the “percentage of CD34+ cells relative to TSF alone” value (CB CD34+CD38−lin− cells; TSF+1 μM ATRA, day 7) was “declined”.

`CCN(CC)c1ccc(C=O)cc1` [DEAB] was tested, and the “ALDH activity in CD34+CD38− cells” value (ALDH) was “significantly reduced”, the “absolute numbers of CD34+CD38− cells compared to day 0” value ([1]; 100 μM DEAB+TSF, 7 days (TSF alone 5-fold decrease)) was “maintenance” and the “mean total cell expansion” value ([1]; 100 μM DEAB+TSF, 7 days (TSF alone 15-fold)) was 4 fold. For the same compound, the “percentages of primitive CD34+CD38− cells in progeny” value ([1]; BM and CB cells, DEAB+TSF 7 days, compared to TSF alone, P=0.01 and P=0.02) was “significantly higher”, the “morphologic examination of progeny” value ([1]; DEAB+TSF cultures, Wrights-Giemsa staining, data not shown) was “predominance of cells with high nuclear:cytoplasmic ratios and prominent nucleoli” and the “CFC content of progeny” value (BM CD34+CD38−lin− cells) was “little CFC content”. The “fold increase in SRC frequency” value ([2]; DEAB+TSF versus day 0 cells or TSF alone) was 2 fold, the “multilineage differentiation in transplanted mice” value ([2]; mice transplanted with DEAB+TSF cultured cells, flow cytometry of BM) was “extensive CD34^+ progenitor cell, CD19^+ B lymphoid and CD 33/13^+ myeloid differentiation” and the “fold higher levels of huCD45+ cell engraftment” value [2, 4] was 4 fold. For the same compound, the “mean huCD45+ cell engraftment” value [2, 4] was 0.9%, the “mice showing huCD45+ cell repopulation at 8 weeks” value ([2]; progeny of DEAB+TSF cultures, cell dose 0.5-1×10^3, 9 of 17 mice (day 0 31%, TSF 18%)) was 53% and the “higher levels of huCD45+ cell engraftment versus day 0 or TSF” value ([2]; progeny of DEAB+TSF cultures, cell dose 2.5×10^3) was 1 log. For the same compound, the “mean huCD45+ cell engraftment” value ([2]; progeny of DEAB+TSF cultures, cell dose 2.5×10^3, 8 weeks (day 0 0.9%, TSF 0.7%)) was 8.0%, the “huCD45+ cell repopulation” value ([3]; cell dose 1-2.5×10^3, TSF+DEAB progeny) was “no huCD45^+ cell repopulation was detected” and the “transplanted mice with human repopulation (FIG. 4 legend)” value ([3]; progeny of 5×10^3 cells after DEAB+TSF culture) was 50-80%. The “mean huCD45+ cell engraftment” value ([3]; progeny of DEAB+TSF cultures, cell dose 5×10^3) was 0.1%, the “mice showing huCD45+ cell engraftment” value ([3]; progeny of DEAB+TSF cultures, cell dose 5×10^3, 3 of 6 mice (day 0 and TSF 0 of 5)) was 50% and the “HOXB4 expression relative to input levels” value (HOXB4) was 80% and 70%. The “Notch transcription compared to TSF alone” value (Notch) was “did not alter”.
